Test results as given in ChEMBL document CHEMBL3045287, “Synthesis and antimicrobial activity of morpholinyl/piperazinylbenzothiazines” (2012).

How the values were obtained:
[1] = test system: Bacillus cereus; assay: Antimicrobial activity against Bacillus cereus at 30 ug/ml after 24 hr by well diffusion assay; format: functional; conditions: read-out: IZ
[2] = test system: Escherichia coli; assay: Antimicrobial activity against Escherichia coli at 30 ug/ml after 24 hr by well diffusion assay; format: functional; conditions: read-out: IZ

SMILES	zone of inhibition at 30 µg/mL [1] [mm]	zone of inhibition at 30 µg/mL [2] [mm]
CC1=C(C(=O)N2CCOCC2)Sc2cc(C)ccc2N1	9	12
CC1=C(C(=O)N2CCN(CCO)CC2)Sc2cc(Cl)ccc2N1	9	11
CC1=C(C(=O)N2CCOCC2)Sc2ccccc2N1	12	9
Cc1ccc2c(c1)SC(C(=O)N1CCOCC1)=C(C(C)C)N2	10	7
CC1=C(C(=O)N2CCN(CCO)CC2)Sc2ccccc2N1	7	9
O=C(N[C@H](CO)[C@H](O)c1ccc([N+](=O)[O-])cc1)C(Cl)Cl [CHLORAMPHENICOL]	10	9
CC1=C(C(=O)N2CCOCC2)Sc2cc(Cl)ccc2N1	8	8
